Results: US20050124056A1, “Novel oxidase” (priority 2002, published 2005)

What was measured:
[1] = tested on: TNF-α mRNA in NOX1-b expressing cells; conditions: pretreated for 3 hours with 1 μM; RT-PCR, EtBr staining
Procedure: On each of the cDNA samples prepared in Example 6 and using a DNA polymerase (r Taq DNA polymerase; mfd. by Toyobo), RT-PCR reaction of 94° C. for 1 minute, 45 cycles of consisting of 94° C. for 10 seconds and 55° C. for 20 seconds and 72° C. for 30 seconds, was carried out.

[2] = target: NOX1-b (Homo sapiens, UniProt Q9Y5S8); conditions: 1 μM added 30 minutes before the addition of cytochrome C; NOX1-b expressing NIH3T3 cells
Procedure: Using the NOX1-b expressing cells shown in Example 3, the ROS productivity was measured by a cytochrome C reduction method. In order to measure ROS by the cytochrome C reduction method, vacant vector expressing cells and NOX1-b expressing cells were respectively dispensed in 0.5×10^6 cells/100 μl/well portions into a 96 well multi-well plate for cell culture (to be referred to as multi-well plate). About 12 hours thereafter, 4.62 mg/ml of cytochrome C was added and mixed in 100 μl/well portions under respective conditions, and then the multi-well plate was set on a plate reader to periodically measurement of absorbance at 550 nm.

[3] = tested on: COX-2 mRNA in NOX1-b expressing cells; conditions: final concentration of 1 μM, RT-PCR 3 hours thereafter; EtBr staining
Procedure: Using the mRNA extraction method shown in Example 1, respective cDNA samples were prepared from the vacant vector expressing cells and NOX1-b expressing cells. By synthesizing probe primers coding for the COX-2-specific sequences represented by SEQ ID NO:9 and SEQ ID NO:10, an RT-PCT reaction of 94° C. for 1 minute and 45 cycles consisting of 94° C. for 10 seconds, 55° C. for 20 seconds and 72° C. for 30 seconds, was carried out on each of the vacant vector expressing cell- and NOX1-b expressing cells-derived samples using a DNA polymerase (r Taq DNA polymerase; mfd. by Toyobo).

Sequence of NOX1-b (Q9Y5S8 1-515 isoform Q9Y5S8-3): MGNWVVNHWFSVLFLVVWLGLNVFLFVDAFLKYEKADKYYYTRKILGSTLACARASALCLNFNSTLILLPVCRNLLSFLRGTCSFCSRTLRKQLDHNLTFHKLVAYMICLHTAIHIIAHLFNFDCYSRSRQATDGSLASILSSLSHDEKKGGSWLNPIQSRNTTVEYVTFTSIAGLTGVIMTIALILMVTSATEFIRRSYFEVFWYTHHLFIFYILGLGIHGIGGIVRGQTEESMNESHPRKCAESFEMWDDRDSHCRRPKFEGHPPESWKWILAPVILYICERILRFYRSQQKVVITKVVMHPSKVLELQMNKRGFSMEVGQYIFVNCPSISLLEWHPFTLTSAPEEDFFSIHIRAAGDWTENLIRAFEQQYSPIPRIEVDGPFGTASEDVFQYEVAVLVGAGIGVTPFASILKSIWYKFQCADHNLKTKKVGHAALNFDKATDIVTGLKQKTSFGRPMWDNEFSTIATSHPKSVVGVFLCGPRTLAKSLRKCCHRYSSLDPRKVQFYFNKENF
Sequence of NOX1-b (Q61462 whole entry partner): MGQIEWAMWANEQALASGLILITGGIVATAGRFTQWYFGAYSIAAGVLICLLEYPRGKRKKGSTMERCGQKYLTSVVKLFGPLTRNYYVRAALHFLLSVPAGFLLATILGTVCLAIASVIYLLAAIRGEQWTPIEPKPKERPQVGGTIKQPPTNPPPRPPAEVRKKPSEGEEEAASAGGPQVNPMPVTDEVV

How did the “induction of TNF-α expression in NOX1-b expressing cells” value [1] turn out when `c1ccc2c(c1)[I+]c1ccccc1-2` [DPI, diphenylene iodonium chloride] was run?
Its value is “inhibited”.

And the “ROS producing activity (absorbance at 550 nm, integrated values after 1 hour)” value [2]?
The value was “considerably inhibited”.

And the “induction of COX-2 expression by NOX1-b expression” value [3]?
The value was “inhibited”.
